From patent US11739074B2, “Ras inhibitors” (Revolution Medicines, Inc., priority 2019, dated 2023) come the findings set out here.

Test [1] has as its system AsPC-1 (K-Ras G12D). Nature of the test: CellTiter-Glo cell viability assay, AsPC-1. Format: cell-based. As to conditions: Homo sapiens, ASPC1, 120 h. In short, it runs like this: (§1)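 Luminescence from CellTiter-Glo serves as the viability read-out after cells are treated with compound for 5 days. Each well's signal is divided by the DMSO average and multiplied by 100, and curves are fitted by four-parameter logistic regression.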
Background: ATP-based viability assays read luminescence as a measure of living cells.

The target in the next test is KRAS G12V (Homo sapiens, UniProt P01116+P62937, G12V). The test is described as follows: Ras-Raf disruption/FRET/MOA assay, KRAS G12V. Format: biochemical. From the text: Disruption of B-Raf Ras-Binding Domain (BRAF^RBD) Interaction with K-Ras by Compounds of the Invention (Also Called a FRET Assay or an MOA Assay)
KRAS G12V, sequence (P01116 1-169 isoform P01116-2 G12V limits assumed): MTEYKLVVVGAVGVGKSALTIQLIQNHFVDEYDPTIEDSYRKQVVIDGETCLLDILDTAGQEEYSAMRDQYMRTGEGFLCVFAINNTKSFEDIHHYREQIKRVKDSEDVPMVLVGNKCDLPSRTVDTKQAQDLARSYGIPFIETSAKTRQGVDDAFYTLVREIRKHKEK
KRAS G12V, sequence (P62937 whole entry, the tested form may be a part): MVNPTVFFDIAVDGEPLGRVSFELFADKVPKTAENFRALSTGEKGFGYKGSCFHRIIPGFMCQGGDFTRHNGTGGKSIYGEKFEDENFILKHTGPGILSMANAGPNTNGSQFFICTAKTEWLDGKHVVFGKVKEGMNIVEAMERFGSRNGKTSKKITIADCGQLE
Note—The following protocol describes a procedure for monitoring disruption of K-Ras G12C (GMP-PNP) binding to BRAF^RBD by a compound of the invention. This protocol may also be executed substituting other Ras proteins or nucleotides, such as K-Ras G12D and K-Ras G13D.
The purpose of this biochemical assay was to measure the ability of test compounds to facilitate ternary complex formation between a nucleotide-loaded K-Ras isoform and Cyclophilin A; the resulting ternary complex disrupts binding to a BRAF^RBD construct, inhibiting K-Ras signaling through a RAF effector.
In assay buffer containing 25 mM HEPES pH 7.3, 0.002% Tween20, 0.1% BSA, 100 mM NaCl and 5 mM MgCl2, tagless Cyclophilin A, His6-K-Ras-GMPPNP, and GST-BRAF^RBD were combined in a 384-well assay plate at final concentrations of 25 μM, 12.5 nM, and 50 nM, respectively. Compound was present in plate wells as a 10-point 3-fold dilution series starting at a final concentration of 30 μM. After incubation at 25° C. for 3 hours, a mixture of anti-His Eu-W1024 and anti-GST allophycocyanin was then added to assay sample wells at final concentrations of 10 nM and 50 nM, respectively, and the reaction incubated for an additional 1.5 hours. […] Compounds that facilitate disruption of a K-Ras:RAF complex were identified as those eliciting a decrease in the TR-FRET ratio relative to DMSO control wells.

For another test, the system named is NCI-H358 (K-Ras G12C). Nature of the test: CellTiter-Glo cell viability assay, H358. Format: cell-based. As to conditions: Homo sapiens, NCI-H358, 120 h. In short, it runs like this:
as §1

The test system of test [2] is AsPC-1 (K-Ras G12D). Nature of the test: Potency assay: pERK in AsPC-1 cells. It counts as cell-based. The conditions noted are these: Homo sapiens.
[3] abbreviates: AsPC-1, K-Ras G12D, 5-day treatment, read-out: AsPC-1 Cell Viability IC50.
[4] abbreviates: disruption of BRAF RBD binding, with Cyclophilin A, read-out: KRAS G12V FRET IC50.
Where [5] appears, read: NCI-H358, K-Ras G12C, 5-day treatment, read-out: H358 Cell Viability IC50.
The mark [6] stands for this setting: read-out: H358 Cell Viability IC50, NCI-H358, K-Ras G12C, 5-day treatment.
Where [7] appears, read: ASPC1, AsPC-1 cells, K-Ras G12D, read-out: pERK EC50 (AsPC-1 KRAS G12D).
Setting [8] is: ASPC1, read-out: pERK EC50 (AsPC-1 KRAS G12D).
Where [9] appears, read: read-out: AsPC-1 Cell Viability IC50, AsPC-1, K-Ras G12D, 5-day treatment.

Read-outs that look alike come from different tables or passages of the source. A value given as a limit tells only on which side of the number the result lay.

The IC50 is the midpoint of a concentration-inhibition curve. `CCn1c(-c2cnccc2COC)c2c3cc(ccc31)-c1cccc(c1)C[C@H](NC(=O)[C@H](C(C)C)N(C)C(=O)CCN=C=Nc1ccccc1COC)C(=O)N1CCC[C@H](N1)C(=O)OCC(C)(C)C2` [Compound 63]: the IC50 in the test with AsPC-1 (K-Ras G12D) [1] (setting [3]) was 1 to 10 µM; on KRAS G12V (setting [4]), greater than 10 µM; in the test on NCI-H358 (K-Ras G12C) (setting [5]), 0.1 to 1 µM.
In the case of `CCn1c(-c2cnccc2COC)c2c3cc(ccc31)-c1cccc(c1)C[C@H](NC(=O)[C@H](C(C)C)N1CC[C@H](CN=C=Nc3ccc(OC)cc3)C1)C(=O)N1CCC[C@H](N1)C(=O)OCC(C)(C)C2` [Compound 81], the IC50 in the test with AsPC-1 (K-Ras G12D) [1] (setting [3]) was 1 to 10 µM; at KRAS G12V (setting [4]), greater than 10 µM.
For the compound `CCn1c(-c2cccnc2COC)c2c3cc(ccc31)-c1cc(O)cc(c1)C[C@H](NC(=O)[C@H](C(C)C)N(C)C(=O)CCNC(=O)NCCCl)C(=O)N1CCC[C@H](N1)C(=O)OCC(C)(C)C2` [Example 25, (2S)-2-(3-(3-(2-chloroethyl)ureido)-N-methylpropanamido)-N-((6^3S,4S)-1^1-ethyl-2^5-hydroxy-1^2-(2-(methoxymethyl)pyridin-3-yl)-10,10-dimethyl-5,7-dioxo-6^1,6^2,6^3,6^4,6^5,6^6-hexahydro-1^1H-8-oxa-1(5,3)-indola-6(1,3)-pyridazina-2(1,3)-benzenacycloundecaphane-4-yl)-3-methylbutanamide], the IC50 against KRAS G12V and in the test with NCI-H358 (K-Ras G12C) (setting [6]) was greater than 10 µM throughout.
Take `CCn1c(-c2cccnc2COC)c2c3cc(ccc31)-c1cc(O)cc(c1)C[C@H](NC(=O)[C@H](C(C)C)N(C)C(=O)CCNC1=NCCO1)C(=O)N1CCC[C@H](N1)C(=O)OCC(C)(C)C2` [Compound 27]: the half-inhibitory concentration (IC50) at KRAS G12V (setting [4]) and in the test with NCI-H358 (K-Ras G12C) (setting [5]) was greater than 10 µM in each case.
As to `CCn1c(-c2cnccc2COC)c2c3cc(ccc31)-c1cc(O)cc(c1)C[C@H](NC(=O)[C@@H](CCNC(=O)NCCCl)C(C)C)C(=O)N1CCC[C@H](N1)C(=O)OCC(C)(C)C2` [Compound 26], the half-inhibitory concentration (IC50) on KRAS G12V (setting [4]) is greater than 10 µM; in the test with NCI-H358 (K-Ras G12C) (read-out: H358 Cell Viability IC50), 1 to 10 µM.
In general, EC50 refers to the midpoint of the concentration-response curve. Regarding `CCn1c(-c2cc(C3CCN(C)CC3)cnc2[C@H](C)OC)c2c3cc(ccc31)-c1cc(O)cc(c1)C[C@H](NC(=O)[C@H](C1CCCC1)N(C)C(=O)CN(C)C(=O)[C@H]1CN1)C(=O)N1CCC[C@H](N1)C(=O)OCC(C)(C)C2` [Compound 230], in the test on AsPC-1 (K-Ras G12D) [2] (setting [7]), the EC50 was less than 5 µM. Also, the concentration for half-maximal inhibition (IC50) in the test with AsPC-1 (K-Ras G12D) [1] (setting [3]) and in the test on NCI-H358 (K-Ras G12C) (setting [5]) was 0.01 to 0.1 µM throughout.
Take `CCn1c(-c2cccnc2[C@H](C)OC)c2c3cc(ccc31)-c1cc(O)cc(c1)C[C@H](NC(=O)[C@H](C(C)C)N(C)C(=O)[C@@]1(F)CCN(C(=O)[C@H]3CN3)C1)C(=O)N1CCC[C@H](N1)C(=O)OCC(C)(C)C2` [Compound 171]: the EC50 with AsPC-1 (K-Ras G12D) [2] (setting [7]) was less than 5 µM. Further, the IC50 in the test with AsPC-1 (K-Ras G12D) [1] (setting [3]) is 0.1 to 1 µM; in the test on NCI-H358 (K-Ras G12C) (setting [5]), less than 0.01 µM.
In the same order, the values of `CCn1c(-c2cccnc2[C@H](C)OC)c2c3cc(ccc31)-c1csc(n1)C[C@H](NC(=O)[C@H](C(C)C)N(C)C(=O)N1CCN(C(=O)[C@@H]3CN3)C[C@H]1C)C(=O)N1CCC[C@H](N1)C(=O)OCC(C)(C)C2` [Compound 302] are less than 5 µM, 0.1 to 1 µM and 0.01 to 0.1 µM.
In the same order, the values of `CCn1c(-c2cccnc2[C@H](C)OC)c2c3cc(ccc31)-c1cc(O)cc(c1)C[C@H](NC(=O)[C@H](C1CCCC1)N(C)C(=O)CN(C)C(=O)[C@H]1N[C@H]1C1(C#N)CC1)C(=O)N1CCC[C@H](N1)C(=O)OCC(C)(C)C2` [Compound 316] are less than 5 µM, 1 to 10 µM and 0.01 to 0.1 µM.
Turning to `CCn1c(-c2cccnc2[C@H](C)OC)c2c3cc(ccc31)-c1cc(O)cc(c1)C[C@H](NC(=O)[C@H](C(C)C)N(C)C(=O)[C@H](C)N(C)C(=O)[C@H]1CN1)C(=O)N1CCC[C@H](N1)C(=O)OCC(C)(C)C2` [Compound 102], the EC50 in the test with AsPC-1 (K-Ras G12D) [2] (setting [8]) was less than 5 µM. Also, the IC50 in the test on AsPC-1 (K-Ras G12D) [1] (setting [9]) is 0.1 to 1 µM; in the test with NCI-H358 (K-Ras G12C) (setting [6]), 0.01 to 0.1 µM.
Consider `CCn1c(-c2cccnc2[C@H](C)OC)c2c3cc(ccc31)-c1cc(O)cc(c1)C[C@H](NC(=O)[C@H](C(C)C)N(C)C(=O)CN(C)C(=O)[C@H]1N[C@H]1C(F)(F)F)C(=O)N1CCC[C@H](N1)C(=O)OCC(C)(C)C2` [Compound 259], for which the EC50 with AsPC-1 (K-Ras G12D) [2] (setting [8]) was less than 5 µM. The IC50 fell in the range of 0.1 to 1 µM in the test on AsPC-1 (K-Ras G12D) [1] (setting [9]) and 0.01 to 0.1 µM with NCI-H358 (K-Ras G12C) (setting [6]).
